According to patent US11833204B2, “Visible light-activatable nanoparticles for cancer immunotherapy and use thereof” (KOREA INSTITUTE OF SCIENCE AND TECHNOLOGY, priority 2021, dated 2023):

How the values were obtained:
[1] = tested on: spleen cells isolated from Balb/c mice; assay: Immune cell activation: treated CT26 cells co-cultured with spleen cells (flow cytometry); format: cell-based; settings: 5 μM, co-culture with spleen cells 24 h; versus doxorubicin or verteporfin alone
Protocol: First, CT26 cells were plated in 100-pi cell culture dishes at a density of 1×10^6 cells/dish and cultured for stabilization for 24 h. Doxorubicin (DOX) (5 μM), verteporfin (VPF) […] or the self-assembled nanoparticles (LT-NPs) (5 μM) were added to each dish. After 24-h culture, one half was exposed by irradiation with visible light using a 671 nm laser at 40 mW for 250 sec (+L) and the other half was not irradiated with visible light for comparison (−L). 1×10^6 spleen cells isolated from Balb/c mice were added to each sample, followed by co-culture for 24 h (FIG. 4I).
The degrees of differentiation into mature dendritic cells and activated T cells in each sample were analyzed using a flow cytometer.

[2] = tested on: CT26 cells; assay: In vivo behaviour and tumor accumulation in CT26 tumor animal model; parameters: species or system mice; settings: 5 mg/kg i.v.
Protocol: […] nude mice (6 weeks old, 20-25 g, male) bred in a sterile environment were used. The mice were acclimated for 2 weeks prior to starting the experiment. The mice had ad libitum access to food and water in cages maintained at a temperature of 22±2° C. and a humidity of 40-60% on a 12 h light and dark cycle during the experiment. All experimental procedures were performed according to the guidelines of the Institutional Animal Care and Use Committee of the Korea Institute of Science and Technology.
Colon cancer was induced in the male nude mice. To this end, 1×10^6 CT26 cells were subcutaneously inoculated into the left thigh of each mouse to construct a tumor animal model. Thereafter, the tumor was allowed to grow until its volume reached ˜200-250 mm^3 prior to the experiment. For sample administration, the mice were randomly divided into 4 groups, 24 animals per group. Verteporfin (VPF) was intravenously administered at a concentration of 5 mg/kg (“VPF-administered group”) and the self-assembled nanoparticles (LT-NPs) were intravenously administered at a concentration of 5 mg/kg (“LT-NPs-administered group”).
The in vivo behaviors of the drugs in the administered groups were evaluated by near-infrared imaging using an IVIS Lumina system for 0.5-9 h.

[3] = ROS generation under 671 nm laser (RNO test); settings: 10 μM, 671 nm laser 40 mW 250 sec
Protocol: ROS generation was analyzed by RNO test, where bleaching of N-nitrosodimethylaniline (RNO) by ROS was observed as a decrease in absorbance at 440 nm.
To determine the reactivity of the self-assembled nanoparticles (LT-NPs) to visible light, experimental samples and a comparative sample were prepared as follows. Each sample was mixed with a 10 μM RNO standard solution and irradiated with visible light using a 671 nm laser (SDL-671 series, Shanghai Dream Laser Technology Co., Ltd.) at a power of 40 mW for 250 sec. Absorbances were measured at 440 nm over time while being irradiated with visible light.
Control sample (VPF, control): Verteporfin (VPF) (10 μM) was mixed with physiological saline (1 mL).
Experimental sample 1 (LT-NPs(-Cat-B)): The self-assembled nanoparticles (LT-NPs) (10 μM) prepared in Example 1 were mixed with physiological saline (1 mL).
Experimental sample 2 (LT-NPs(+Cat-B)): The self-assembled nanoparticles (LT-NPs) (10 μM) prepared in Example 1 were mixed with distilled water (200 μL) containing cathepsin B (10 μg) and 1.2 mM histidine. […]
First, the absorbance before laser irradiation was defined as 1 and reduction rates of the absorbance values measured at 440 nm with respect to the absorbance before laser irradiation were calculated. The calculated values were transformed into negative natural logs (−In(y)), which were then multiplied by 100. […]

[4] = Size analysis of LT-NPs by dynamic light scattering; format: physicochemical; settings: 1 mg/mL in saline, DLS
Protocol: The self-assembled nanoparticles (LT-NPs) prepared in Example 1 were diluted with saline to a concentration of 1 mg/mL and their particle size was analyzed by dynamic light scattering (DLS; Zetasizer Nano ZS, Malvern Instruments).

## C=CC1=C(C)/C2=C/C3=NC(Cc4[nH]c(c(CCCCC(=O)OC)c4C)CC4N=C(CC1N2)C(C)=C4CCC(=O)N[C@H](Cc1ccccc1)C(=O)N[C@@H](CCCNC(=N)N)C(=O)N[C@H](CCCNC(=N)N)C(=O)NCC(=O)NC1C[C@@H](OC2C[C@](O)(C(=O)CO)Cc4c(O)c5c(c(O)c42)C(=O)c2c(OC)cccc2C5=O)O[C@@H](C)[C@H]1O)[C@@]1(C)C3=CC=C(C(=O)OC)[C@@H]1C(=O)OC (some centres unmarked) [LT-NPs, VPF-FRRG(SEQ ID NO: 1)-DOX]
[1]
  degree of differentiation into activated T cells: significantly higher
  degree of differentiation into mature dendritic cells: significantly higher
[2]
  accumulation in cancer cells (histological analysis): accumulated in cancer cells with significantly higher efficacy than the conventional anticancer drug
[2]; 0.5-9 h, IVIS Lumina
  fluorescence intensity in cancer cells (near-infrared imaging): higher than those of Group 1 treated with verteporfin
[2]; liver, lung, spleen, kidney, heart, tumor
  fluorescence intensity in cancer cells (drug accumulated in tissues): higher than those of Group 1 treated with verteporfin
[3]; cleaved with cathepsin B
  amount of ROS generated, relative to verteporfin (VPF): 80%
[3]; without Cat-B
  reactivity with visible light (ROS generation), stable state: hardly reactive with visible light
[4]
  average particle diameter: 87 nm
